# Assay results taken from patent EP4417602A1, “SUBSTITUTED PYRAZOLE CARBOXAMIDES, SALTS THEREOF AND THEIR USE AS HERBICIDALLY ACTIVE SUBSTANCES” (Bayer AG, priority 2023, dated 2024).
# Legend:
# MATIN [1] = assay: B. Herbicidal post-emergence action on harmful plants (Tables B); type: in vivo, Matricaria inodora; conditions: application rate 1280 g/ha; Table B4a
# How it was run: (§1)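 Greenhouse weeds grown in sandy loam were sprayed post-emergence at the one-leaf stage, 2-3 weeks after sowing. Compounds were applied as WP or EC in water with 0.5% additive at 600 L/ha, at 1280 g/ha or below. Visual damage was rated after about 3 weeks versus untreated plants (0-100%).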
# AMARE [2] = assay: as above; type: in vivo, Amaranthus retroflexus; conditions: application rate 1280 g/ha; Table B8
# Experimental: (§2) Seeds of mono- and dicotyledonous weed plants were placed in plastic pots in sandy loam soil (doubly sown with in each case one species of mono- or dicotyledonous weed plants per pot), covered with soil and cultivated in a greenhouse under controlled growth conditions. 2 to 3 weeks after sowing, the test plants were treated at the one-leaf stage. The compounds of the invention, formulated in the form of wettable powders (WP) or as emulsion concentrates (EC), were applied onto the green parts of the plants as aqueous suspension or emulsion with addition of 0.5% additive at a water application rate of 600 liters per hectare (converted). After the test plants had been kept in the greenhouse under optimum growth conditions for about 3 weeks, the activity of the preparations was rated visually in comparison to untreated controls. For example, 100% activity = the plants have died, 0% activity = like control plants. Tables B1 to B12, below, show the effects of selected compounds of the general formula (I) according to table 1 on various harmful plants and an application rate corresponding to 1280 g/ha or below obtained by the experimental procedure mentioned above. Table B1a: post-emergence activity at 1280g/ha against ABUTH in %
# ECHCG [3] = assay: A. Herbicidal pre-emergence action on harmful plants (Tables A); type: in vivo, Echinochloa crus-galli; conditions: visual grading after ca. 3 weeks vs untreated controls, 100% = plants have died off, 0% = as control plants
# How it was run: (§3)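 Values are visual percent damage relative to untreated controls, scored ca. 3 weeks after the compound was sprayed on the covering soil of sown pots (sandy loam) at rates up to 1280 g/ha, formulated as WP or EC with 0.5% additive.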
# AMARE [4] = assay: as above; type: in vivo, Amaranthus retroflexus
# How it was run: as §3
# KCHSC = assay: B. Herbicidal post-emergence action on harmful plants (Tables B); type: in vivo, Kochia scoparia
# Experimental: as §2
# DIGSA [5] = assay: A. Herbicidal pre-emergence action on harmful plants (Tables A); type: in vivo, Digitaria sanguinalis
# How it was run: as §3
# SETVI [6] = assay: as above; type: in vivo, Setaria viridis; conditions: visual grading after ca. 3 weeks vs untreated controls, 100% = plants have died off, 0% = as control plants
# How it was run: as §3
# DIGSA [7] = assay: B. Herbicidal post-emergence action on harmful plants (Tables B); type: in vivo, Digitaria sanguinalis; conditions: application rate 1280 g/ha; Table B12a
# How it was run: as §1
# POAAN [8] = assay: A. Herbicidal pre-emergence action on harmful plants (Tables A); type: in vivo, Poa annua
# How it was run: as §3
# STEME [9] = assay: as above; type: in vivo, Stellaria media; conditions: visual grading after ca. 3 weeks vs untreated controls, 100% = plants have died off, 0% = as control plants
# How it was run: as §3
# VERPE [10] = assay: as above; type: in vivo, Veronica persica; conditions: application rate 1280 g/ha; Table A11
# Source text: Seeds of mono- and dicotyledonous weed plants were sown in plastic pots (double sowings with one species of mono- and one species of dicotyledonous weed plants per pot), in sandy loam, and covered with soil. The compounds according to the invention, formulated in the form of wettable powders (WP) or as emulsifiable concentrates (EC), were applied to the surface of the covering soil as aqueous suspension or emulsion, with the addition of 0.5% of an additive, at an application rate of 6001 of water per hectare (converted). Following treatment, the pots were placed in a greenhouse and kept under optimum growth conditions for the test plants. The visual grading of the damage to the test plants was carried out after ca. 3 weeks in comparison to untreated controls (herbicidal effect in percent (%): 100% effect = plants have died off, 0% effect = as control plants). Tables A1 to A12, below, show the effects of selected compounds of the general formula (I) according to table 1 on various harmful plants and an application rate corresponding to 1280 g/ha or below obtained by the experimental procedure mentioned above. Table A1: pre-emergence activity at 1280g/ha against ABUTH in %
# ALOMY = assay: as above; type: in vivo, Alopecurus myosuroides
# How it was run: as §3
# POAAN [11] = assay: B. Herbicidal post-emergence action on harmful plants (Tables B); type: in vivo, Poa annua
# How it was run: as §1
# MATIN [12] = assay: A. Herbicidal pre-emergence action on harmful plants (Tables A); type: in vivo, Matricaria inodora; conditions: visual grading after ca. 3 weeks vs untreated controls, 100% = plants have died off, 0% = as control plants
# How it was run: as §3
# LOLRI [13] = assay: as above; type: in vivo, Lolium rigidum; conditions: visual grading after ca. 3 weeks vs untreated controls, 100% = plants have died off, 0% = as control plants
# How it was run: as §3
# ECHCG [14] = assay: B. Herbicidal post-emergence action on harmful plants (Tables B); type: in vivo, Echinochloa crus-galli
# How it was run: as §1
# SETVI [15] = assay: as above; type: in vivo, Setaria viridis; conditions: application rate 1280 g/ha; Table B5
# How it was run: as §1
# ABUTH = assay: as above; type: in vivo, Abutilon theophrasti; conditions: application rate 1280 g/ha; Table B1a
# How it was run: as §1
# VERPE [16] = assay: as above; type: in vivo, Veronica persica
# How it was run: as §1
# LOLRI [17] = assay: as above; type: in vivo, Lolium rigidum; conditions: application rate 1280 g/ha; Table B3
# Experimental: as §2
# STEME [18] = assay: as above; type: in vivo, Stellaria media; conditions: application rate 1280 g/ha; Table B6
# How it was run: as §1
# [19] = application rate 1280 g/ha, visual grading after ca. 3 weeks vs untreated controls, 100% = plants have died off, 0% = as control plants
# [20] = application rate 1280 g/ha, Table B10a
# [21] = application rate 1280 g/ha, Table A12a
# [22] = application rate 1280 g/ha, Table A9a
# [23] = application rate 1280 g/ha, Table B7a
# [24] = application rate 320 g/ha, Table A12b
# [25] = application rate 80 g/ha, Table A7c
# [26] = application rate 320 g/ha, Table A7b
structure (smiles),measurement,setting,value
CC(C)COCc1nn(C)cc1C(=O)N1CCCC1Cc1cc(F)ccc1F (racemic) [Example I-009],post-emergence activity against MATIN,MATIN [1],90%
same,post-emergence activity against AMARE,AMARE [2],90%
same,pre-emergence activity against ECHCG,ECHCG [3]; application rate 1280 g/ha,100%
same,pre-emergence activity against AMARE,AMARE [4]; [19],100%
same,post-emergence activity against KCHSC,"KCHSC; application rate 320 g/ha, Table B10b",100%
same,post-emergence activity against KCHSC,KCHSC; [20],100%
same,pre-emergence activity against DIGSA,DIGSA [5]; [21],90%
same,pre-emergence activity against SETVI,SETVI [6]; application rate 1280 g/ha,100%
same,post-emergence activity against DIGSA,DIGSA [7],100%
same,pre-emergence activity against POAAN,POAAN [8]; [19],100%
Cn1ncc(C(=O)N2CCCC2Cc2ccccc2F)c1COCC(F)(F)F (racemic) [Example I-163],pre-emergence activity against ECHCG,ECHCG [3]; application rate 1280 g/ha,90%
same,post-emergence activity against KCHSC,KCHSC; [20],90%
same,pre-emergence activity against STEME,STEME [9]; application rate 1280 g/ha,90%
same,pre-emergence activity against DIGSA,DIGSA [5]; [21],90%
same,pre-emergence activity against VERPE,VERPE [10],100%
same,pre-emergence activity against ALOMY,ALOMY; [22],100%
same,pre-emergence activity against POAAN,POAAN [8]; [19],100%
same,post-emergence activity against POAAN,POAAN [11]; [23],100%
COCc1c(C(=O)N2CCCC2Cc2ccccc2F)cnn1C (racemic) [Example I-171],pre-emergence activity against ECHCG,ECHCG [3]; application rate 320 g/ha,90%
same,pre-emergence activity against ECHCG,ECHCG [3]; application rate 1280 g/ha,100%
same,post-emergence activity against KCHSC,KCHSC; [20],90%
same,pre-emergence activity against MATIN,MATIN [12]; application rate 1280 g/ha,100%
same,pre-emergence activity against STEME,STEME [9]; application rate 1280 g/ha,90%
same,pre-emergence activity against DIGSA,DIGSA [5]; [24],90%
same,pre-emergence activity against DIGSA,DIGSA [5]; [21],100%
same,pre-emergence activity against LOLRI,LOLRI [13]; application rate 320 g/ha,90%
same,pre-emergence activity against LOLRI,LOLRI [13]; application rate 1280 g/ha,100%
same,pre-emergence activity against SETVI,SETVI [6]; application rate 320 g/ha,90%
same,pre-emergence activity against SETVI,SETVI [6]; application rate 1280 g/ha,100%
same,pre-emergence activity against POAAN,POAAN [8]; [25],90%
same,pre-emergence activity against POAAN,POAAN [8]; [26],100%
same,pre-emergence activity against POAAN,POAAN [8]; [19],100%
"COCc1nn(C)cc1C(=O)N1CCCC1Cc1ccc(F)cc1F (single isomer, unassigned) [Example I-079]",post-emergence activity against MATIN,MATIN [1],90%
same,post-emergence activity against AMARE,AMARE [2],90%
same,pre-emergence activity against ECHCG,ECHCG [3]; application rate 80 g/ha,90%
same,pre-emergence activity against ECHCG,ECHCG [3]; application rate 320 g/ha,90%
same,pre-emergence activity against ECHCG,ECHCG [3]; application rate 1280 g/ha,90%
same,pre-emergence activity against AMARE,"AMARE [4]; application rate 320 g/ha, Table A8b",90%
same,pre-emergence activity against AMARE,AMARE [4]; [19],90%
same,pre-emergence activity against MATIN,MATIN [12]; application rate 80 g/ha,90%
same,pre-emergence activity against MATIN,MATIN [12]; application rate 320 g/ha,90%
same,pre-emergence activity against MATIN,MATIN [12]; application rate 1280 g/ha,90%
same,pre-emergence activity against STEME,STEME [9]; application rate 80 g/ha,90%
same,pre-emergence activity against STEME,STEME [9]; application rate 320 g/ha,90%
same,pre-emergence activity against STEME,STEME [9]; application rate 1280 g/ha,90%
same,pre-emergence activity against DIGSA,"DIGSA [5]; application rate 80 g/ha, Table A12c",90%
same,pre-emergence activity against DIGSA,DIGSA [5]; [24],90%
same,pre-emergence activity against DIGSA,DIGSA [5]; [21],90%
same,pre-emergence activity against LOLRI,LOLRI [13]; application rate 80 g/ha,90%
same,pre-emergence activity against LOLRI,LOLRI [13]; application rate 320 g/ha,100%
same,pre-emergence activity against LOLRI,LOLRI [13]; application rate 1280 g/ha,100%
same,post-emergence activity against ECHCG,"ECHCG [14]; application rate 320 g/ha, Table B2b",90%
same,post-emergence activity against ECHCG,"ECHCG [14]; application rate 1280 g/ha, Table B2a",90%
same,post-emergence activity against SETVI,SETVI [15],90%
same,pre-emergence activity against VERPE,VERPE [10],90%
same,post-emergence activity against ABUTH,ABUTH,90%
same,pre-emergence activity against ALOMY,"ALOMY; application rate 320 g/ha, Table A9b",90%
same,pre-emergence activity against ALOMY,ALOMY; [22],90%
same,pre-emergence activity against SETVI,SETVI [6]; application rate 80 g/ha,90%
same,pre-emergence activity against SETVI,SETVI [6]; application rate 320 g/ha,90%
same,pre-emergence activity against SETVI,SETVI [6]; application rate 1280 g/ha,90%
same,post-emergence activity against VERPE,"VERPE [16]; application rate 320 g/ha, Table B11b",90%
same,post-emergence activity against VERPE,"VERPE [16]; application rate 1280 g/ha, Table B11a",90%
same,post-emergence activity against LOLRI,LOLRI [17],90%
same,post-emergence activity against DIGSA,DIGSA [7],90%
same,pre-emergence activity against POAAN,POAAN [8]; [25],100%
same,pre-emergence activity against POAAN,POAAN [8]; [26],100%
same,pre-emergence activity against POAAN,POAAN [8]; [19],100%
same,post-emergence activity against STEME,STEME [18],90%
same,post-emergence activity against POAAN,"POAAN [11]; application rate 80 g/ha, Table B7c",90%
same,post-emergence activity against POAAN,"POAAN [11]; application rate 320 g/ha, Table B7b",90%
same,post-emergence activity against POAAN,POAAN [11]; [23],90%
